In ChEMBL document CHEMBL5104090, “Recent advances in the medicinal chemistry of carbonic anhydrase inhibitors” (Eur J Med Chem, 2021):

Columns and labels:
[1] = molecular target: T1, Carbonic anhydrase 1 (Homo sapiens, UniProt P00915)
Target sequence in this assay (P00915 whole entry): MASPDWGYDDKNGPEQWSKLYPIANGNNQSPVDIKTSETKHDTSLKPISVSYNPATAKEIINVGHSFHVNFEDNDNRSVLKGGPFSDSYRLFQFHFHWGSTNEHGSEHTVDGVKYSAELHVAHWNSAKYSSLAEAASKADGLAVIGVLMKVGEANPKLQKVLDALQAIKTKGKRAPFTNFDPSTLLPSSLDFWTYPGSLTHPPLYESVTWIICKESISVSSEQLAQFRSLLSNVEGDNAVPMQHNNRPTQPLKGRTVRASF

[2] = molecular target: T2, Carbonic anhydrase 2 (Homo sapiens, UniProt P00918)
[3] = molecular target: T3, Carbonic anhydrase 4 (Homo sapiens, UniProt P22748)
[4] = molecular target: T2, Carbonic anhydrase 2; remark: listed apart in the source
[5] = molecular target: T1, Carbonic anhydrase 1; remark: listed apart in the source
Target sequence in this assay (P00915 whole entry): as above

[6] = molecular target: T4, Carbonic anhydrase 9 (Homo sapiens, UniProt Q16790)
[7] = tested on: HT-1080; test: cells; assay type: functional, cell-based; details: Homo sapiens, HT-1080, 48 h
Description: Cytotoxicity against human HT-1080 cells assessed as cell growth inhibition measured after 48 hrs by MTT assay

[8] = tested on: SH-SY5Y; test: cells; assay type: functional, cell-based; details: Homo sapiens, 48 h
Description: Cytotoxicity against human SH-SY5Y cells assessed as cell growth inhibition measured after 48 hrs by MTT assay

[9] = tested on: MCF7; test: cells; assay type: functional, cell-based; details: Homo sapiens, MCF7, 48 h
Description: Cytotoxicity against human MCF7 cells assessed as cell growth inhibition measured after 48 hrs by MTT assay

[10] = molecular target: T4, Carbonic anhydrase 9; remark: listed apart in the source
[11] = molecular target: T1, Carbonic anhydrase 1; remark: listed apart in the source
Target sequence in this assay (P00915 whole entry): as above

[12] = molecular target: T5, Carbonic anhydrase 12 (Homo sapiens, UniProt O43570)
T5 sequence (O43570 whole entry): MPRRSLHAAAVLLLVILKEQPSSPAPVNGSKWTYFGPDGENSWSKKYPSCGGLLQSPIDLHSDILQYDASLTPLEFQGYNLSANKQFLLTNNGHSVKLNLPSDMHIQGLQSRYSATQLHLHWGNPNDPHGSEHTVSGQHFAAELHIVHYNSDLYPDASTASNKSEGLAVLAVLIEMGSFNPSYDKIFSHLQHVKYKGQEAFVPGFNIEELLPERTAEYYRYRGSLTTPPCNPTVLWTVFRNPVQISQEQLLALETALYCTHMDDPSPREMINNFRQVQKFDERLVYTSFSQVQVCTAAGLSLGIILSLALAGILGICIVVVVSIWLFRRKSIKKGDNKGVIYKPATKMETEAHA

[13] = molecular target: T2, Carbonic anhydrase 2; remark: listed apart in the source
[14] = molecular target: T2, Carbonic anhydrase 2; remark: listed apart in the source
[15] = molecular target: T1, Carbonic anhydrase 1; remark: listed apart in the source
Target sequence in this assay (P00915 whole entry): as the sequence (P00915 whole entry) above

[16] = in vitro; details: human, corneal epithelial cell
Description: Cytotoxicity against human Corneal epithelial cell assessed as cell growth inhibition at 1 % measured after 96 hrs by MTT assay relative to control

[17] = molecular target: Carbonic anhydrase 5A, mitochondrial (Homo sapiens, UniProt P35218)
Carbonic anhydrase 5A, mitochondrial, sequence (P35218 whole entry): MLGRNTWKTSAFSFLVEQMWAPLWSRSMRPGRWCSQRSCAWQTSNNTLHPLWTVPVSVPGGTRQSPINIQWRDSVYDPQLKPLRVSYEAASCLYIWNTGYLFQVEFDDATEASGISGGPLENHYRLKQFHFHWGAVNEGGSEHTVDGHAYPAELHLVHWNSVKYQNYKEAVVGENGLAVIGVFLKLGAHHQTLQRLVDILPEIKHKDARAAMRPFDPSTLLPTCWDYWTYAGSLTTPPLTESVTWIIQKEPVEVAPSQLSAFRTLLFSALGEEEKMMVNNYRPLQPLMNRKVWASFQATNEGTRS

[18] = in vitro; details: human
Description: Selectivity index, ratio of CC50 for cytotoxicity against HPLF cells to CC50 for cytotoxicity against human Ca9-22 cells by MTT method

[19] = tested on: HSC-2; test: cells; assay type: functional; details: Homo sapiens, time 48 hrs
Description: Cytotoxicity against human HSC-2 cells assessed as cell growth inhibition measured after 48 hrs by MTT assay

[20] = in vitro; details: human; remark: listed apart in the source
Description: Selectivity index, ratio of CC50 for cytotoxicity against HPLF cells to CC50 for cytotoxicity against human HSC-2 cells by MTT method

[21] = tested on: Ca9-22; test: cells; assay type: functional; details: Homo sapiens, time 48 hrs
Description: Cytotoxicity against human Ca9-22 cells assessed as cell growth inhibition measured after 48 hrs by MTT assay

[22] = in vitro; details: human; remark: listed apart in the source
Description: Selectivity index, ratio of CC50 for cytotoxicity against HGF cells to CC50 for cytotoxicity against human Ca9-22 cells by MTT method

[23] = in vitro; details: human; remark: listed apart in the source
Description: Selectivity index, ratio of CC50 for cytotoxicity against HGF cells to CC50 for cytotoxicity against human HSC-2 cells by MTT method

[24] = molecular target: T5, Carbonic anhydrase 12; details: time 6.0 hrs
[25] = molecular target: T1, Carbonic anhydrase 1; remark: listed apart in the source
Target sequence in this assay (P00915 2-261 limits assumed): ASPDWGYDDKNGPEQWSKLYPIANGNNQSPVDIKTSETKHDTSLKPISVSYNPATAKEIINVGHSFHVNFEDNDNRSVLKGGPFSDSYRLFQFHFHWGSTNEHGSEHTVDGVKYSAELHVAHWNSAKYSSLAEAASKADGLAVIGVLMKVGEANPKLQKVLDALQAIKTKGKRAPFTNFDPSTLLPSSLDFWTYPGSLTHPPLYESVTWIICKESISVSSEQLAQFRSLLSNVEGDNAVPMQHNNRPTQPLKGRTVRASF

[26] = molecular target: T2, Carbonic anhydrase 2; remark: listed apart in the source
[27] = molecular target: T1, Carbonic anhydrase 1; remark: listed apart in the source
Target sequence in this assay (P00915 whole entry): as the sequence (P00915 whole entry) above

[28] = molecular target: Acetylcholinesterase (Homo sapiens, UniProt P22303)
Acetylcholinesterase, sequence (P22303 whole entry): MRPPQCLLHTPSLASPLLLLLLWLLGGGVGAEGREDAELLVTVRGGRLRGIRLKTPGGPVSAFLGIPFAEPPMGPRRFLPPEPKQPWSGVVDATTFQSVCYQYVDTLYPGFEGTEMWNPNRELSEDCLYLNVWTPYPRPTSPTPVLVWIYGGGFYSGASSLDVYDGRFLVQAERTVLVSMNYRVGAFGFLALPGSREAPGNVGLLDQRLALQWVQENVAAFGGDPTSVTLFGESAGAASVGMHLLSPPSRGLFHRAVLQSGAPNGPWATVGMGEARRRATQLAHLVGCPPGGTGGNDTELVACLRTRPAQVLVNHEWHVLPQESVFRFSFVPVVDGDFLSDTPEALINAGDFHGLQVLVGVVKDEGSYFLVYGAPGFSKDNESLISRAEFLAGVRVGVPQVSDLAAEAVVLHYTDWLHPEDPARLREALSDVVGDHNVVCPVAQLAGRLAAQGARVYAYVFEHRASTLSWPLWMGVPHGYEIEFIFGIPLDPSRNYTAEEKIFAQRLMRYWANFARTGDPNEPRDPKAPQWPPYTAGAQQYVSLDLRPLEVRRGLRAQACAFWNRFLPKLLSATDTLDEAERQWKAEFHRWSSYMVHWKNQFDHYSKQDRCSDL

[29] = molecular target: T5, Carbonic anhydrase 12; remark: listed apart in the source
[30] = molecular target: T3, Carbonic anhydrase 4; remark: listed apart in the source
[31] = molecular target: T2, Carbonic anhydrase 2; remark: listed apart in the source
[32] = molecular target: T4, Carbonic anhydrase 9; remark: listed apart in the source
[33] = molecular target: Carbonic anhydrase 7 (Homo sapiens, UniProt P43166)
Carbonic anhydrase 7, sequence (P43166 whole entry): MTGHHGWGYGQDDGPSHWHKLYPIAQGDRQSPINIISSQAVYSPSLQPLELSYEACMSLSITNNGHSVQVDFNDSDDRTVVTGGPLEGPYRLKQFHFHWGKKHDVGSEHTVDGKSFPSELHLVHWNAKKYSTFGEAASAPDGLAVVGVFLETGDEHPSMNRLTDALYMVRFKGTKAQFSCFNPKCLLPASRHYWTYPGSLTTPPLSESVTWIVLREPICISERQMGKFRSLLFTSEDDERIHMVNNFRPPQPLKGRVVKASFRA

T3 sequence (P22748 whole entry): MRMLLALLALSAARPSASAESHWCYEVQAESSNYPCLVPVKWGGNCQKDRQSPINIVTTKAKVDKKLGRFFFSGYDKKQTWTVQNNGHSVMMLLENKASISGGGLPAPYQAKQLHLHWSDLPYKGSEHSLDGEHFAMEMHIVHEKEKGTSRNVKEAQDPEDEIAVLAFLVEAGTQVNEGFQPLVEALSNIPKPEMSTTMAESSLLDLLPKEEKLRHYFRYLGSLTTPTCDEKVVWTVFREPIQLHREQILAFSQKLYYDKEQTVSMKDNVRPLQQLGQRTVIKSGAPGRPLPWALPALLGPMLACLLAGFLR

O=C1C(=O)N(CN2CCOCC2)c2ccccc21
Ki [1]: 8.57 nM
Ki [2]: 5.02 nM

NS(=O)(=O)c1ccc(N/C=C/C(=O)c2ccc3ccccc3c2)cc1
Ki [3]: 6.5 nM
Ki [4]: 0.48 nM
Ki [5]: > 10000 nM
Ki [6]: 0.21 nM

O=S1(=O)C=Cc2cc(-c3nnnn3-c3ccc(F)c(Cl)c3)ccc2O1
IC50 [7]: 7900 nM
IC50 [8]: 18400 nM
IC50 [9]: 1800 nM

NS(=O)(=O)c1ccc(N/N=C2\C(=O)Nc3ccccc32)cc1
Ki [10]: 21.4 nM
Ki [11]: 90.2 nM
Ki [12]: 34.3 nM
Ki [13]: 6.5 nM

NS(=O)(=O)c1ccc(C(=O)N[C@@H]2O[C@H](CO)[C@@H](O)[C@H](O)[C@H]2O)cc1
Ki [14]: 0.009 nM

COC(=O)[C@H]1O[C@@H](O)[C@H](O)[C@@H](O)[C@@]1(O)S(=O)(=O)Nc1ccccc1C(N)=O
IC50 [15]: 1800 nM
inhibition at 96 h, 1 % [16]: 74%
Ki [14]: 0.009 nM

CC(C)[C@@H](NC(=O)OCc1ccccc1)C(=O)NCCc1ccc(S(N)(=O)=O)cc1
Ki [17]: 58.7 nM

CN1CCN(CN2C(=O)C(=O)c3ccccc32)CC1
Ki [1]: 8.57 nM
Ki [2]: 5.02 nM

NS(=O)(=O)c1ccc(CCn2c(SCC(=O)Nc3ccc(Cl)cc3)nc3ccccc3c2=O)cc1
Ki [4]: 25.4 nM

COc1cc(C2CC(c3ccc(F)cc3)=NN2c2ccc(S(N)(=O)=O)cc2)cc(OC)c1OC (stereo not drawn)
selectivity ratio [18]: 1.1
CC50 [19]: 7300 nM
selectivity ratio [20]: 1.1
Ki [10]: > 44 nM
Ki [11]: > 230 nM
Ki [12]: > 9 nM
CC50 [21]: 6300 nM
selectivity ratio [22]: 1.1
selectivity ratio [23]: 1.1
Ki [13]: 0.089 nM

O=[N+]([O-])c1ccc2c(c1)C=CCS(=O)(=O)O2
Kis [24]: 0.64 µM

NS(=O)(=O)c1ccc(C(=O)NN2C(=O)C3CC=CCC3C2=O)cc1 (stereo not drawn)
Kis [25]: 84.3 nM

NS(=O)(=O)c1ccc(N2N=C(c3cccs3)CC2c2ccc(Br)cc2)cc1 (stereo not drawn)
Ki [26]: 37.3 nM
Ki [27]: 25.6 nM
Ki [28]: 80.6 nM

O=S1(=O)C=Cc2cc(-n3cc(-c4ccc(Cl)cc4)nn3)ccc2O1
IC50 [7]: 7900 nM
Ki [10]: 6.9 nM
IC50 [8]: 18400 nM
IC50 [9]: 1800 nM
Ki [12]: 5.4 nM

O=c1c2ccccc2nc(SCCN2CCCCC2)n1CCc1ccccc1
Ki [29]: 17.2 nM
Ki [4]: 14.2 nM
Ki [5]: 229 nM
Ki [6]: 19.3 nM

NS(=O)(=O)c1ccc(N/C=C/C(=O)c2ccc([N+](=O)[O-])cc2)cc1
Ki [3]: 6.5 nM
Ki [5]: > 10000 nM
Ki [6]: 0.21 nM

COc1cc(S(N)(=O)=O)ccc1-c1nc(-c2cccc(F)c2)no1
Ki [30]: 8.9 nM

COc1ccccc1N1CCN(Cc2cc(/C=C3/Cc4ccccc4C3=O)ccc2O)CC1
Ki [31]: 51.1 nM

NS(=O)(=O)c1ccc(C(=O)N[C@@H]2O[C@H](CO)[C@H](O)[C@H](O)[C@H]2O)cc1
Ki [14]: 0.009 nM

C[C@@H]1O[C@H](NC(=O)c2ccc(S(N)(=O)=O)cc2)[C@H](O)[C@H](O)[C@H]1O
IC50 [15]: 1800 nM
Ki [14]: 0.009 nM

NS(=O)(=O)c1ccc(NCC(=O)N/N=C2\C(=O)N(Cc3ccccc3)c3ccccc32)cc1
Ki [10]: 16.4 nM
Ki [12]: 34.3 nM
Ki [13]: 3 nM

Cc1ccc2c(c1)C(=O)N(NC(=O)c1ccc(S(N)(=O)=O)cc1)C2=O
Kis [32]: 3 nM
Kis [25]: 84.3 nM

NS(=O)(=O)c1ccc(N/C=C/C(=O)c2ccc(F)cc2)cc1
Ki [3]: 6.5 nM
Ki [4]: 0.48 nM
Ki [5]: 9300 nM
Ki [6]: 0.21 nM

COc1cc([SeH])cc(OC)c1OC
Ki [33]: > 50000 nM
Ki [4]: > 50000 nM
Ki [5]: > 50000 nM
Ki [6]: 180 nM

O=S1(=O)C=Cc2cc(-c3nnnn3-c3ccccc3)ccc2O1
IC50 [7]: 7900 nM
Ki [10]: 6.9 nM
IC50 [8]: 18400 nM
IC50 [9]: 1800 nM
Ki [12]: 5.4 nM

NS(=O)(=O)c1ccc(C(=O)N[C@@H]2O[C@H](CO)[C@@H](O)[C@H](O)[C@@H]2O)cc1
inhibition at 96 h, 1 % [16]: 74%
Ki [14]: 0.009 nM

NS(=O)(=O)c1ccc(C(=O)NN2C(=O)c3nccnc3C2=O)cc1
Kis [25]: 84.3 nM

NS(=O)(=O)c1ccc(C(=O)N[C@@H]2OC[C@@H](O)[C@H](O)[C@H]2O)cc1
inhibition at 96 h, 1 % [16]: 74%

CS(=O)(=O)Cc1cc(O)c(O)c(Br)c1Br
Ki [31]: 42.8 nM

O=S1(=O)CC=Cc2cc(-n3cc(-c4ccc(C(F)(F)F)cc4)nn3)ccc2O1
Kis [24]: 0.64 µM

NS(=O)(=O)c1ccc(N=C2C(=O)Nc3ccccc32)cc1
Ki [10]: 13.9 nM
Ki [12]: 34.3 nM
Ki [13]: 3 nM

O=C1/C(=C\c2ccc(O)c(CN3CCN(c4ccccc4)CC3)c2)Cc2ccccc21
Ki [31]: 51.1 nM

Nc1ccc2c(c1)C=CCS(=O)(=O)O2
Kis [24]: 0.64 µM

NS(=O)(=O)c1ccc(N/C=C/C(=O)c2ccc(Br)cc2)cc1
Ki [3]: 6.5 nM
Ki [4]: 0.48 nM
Ki [5]: 8500 nM
Ki [6]: 0.21 nM

CC(C)(C)c1ccc2c(c1)C(=O)N(NC(=O)c1ccc(S(N)(=O)=O)cc1)C2=O
Kis [32]: 3 nM
Kis [25]: 84.3 nM
